The source of these data is patent US9862693B2, “Compounds and methods of treating cancer” (The Regents of the University of California, priority 2012, dated 2018).

Holding throughout (format): cell-based
In one test the test system is HCC1806. Description: MTS cell number assay (CellTiter 96), TNBC cells. The note with it: 1 mM, 72 hours, MTS method. On the procedure:
(§1) FIGS. 2A-2D. Metformin analogues inhibit growth/survival of triple negative breast cancer cells. MDA-MB-231 (FIG. 2A), HCC38 (FIG. 2B), HCC1937 (FIG. 2C) and HCC1806 (FIG. 2D) cells were cultured in medium containing 1% fetal bovine serum and increasing concentrations of metformin and analogues JD001-JD009 (0.1, 1 and 5 mM). After 3 days, MTS assay was performed. The percentage of surviving cells relative to controls, defined as 100% survival, was determined by the MTS assay.
(§2) Cells were incubated in the presence of vehicle, metformin or metformin analogues for 72 hours in their respective media. After treatment cell numbers were determined with the MTS method using the CellTiter 96 Aqueous Non-Radioactive Cell Proliferation Assay (Promega). Numbers express percentage of vehicle treated controls at 1 mM concentration metformin or metformin analogues (JD001-JD009). TNBC: Triple Negative Breast Cancer Cells, ER+BC: Estrogen receptor positive breast cancer.
On the technique in general: Tetrazolium assays rely on reduction of a dye to a coloured formazan, in cell work by metabolically active cells.

For another test, the system named is HCC1937. In words: MTS cell number assay (CellTiter 96), TNBC cells. The conditions noted are these: 1 mM, 72 hours, MTS method. The method, then:
as §1, §2

Another test has as its system HCC38. In words: MTS cell number assay (CellTiter 96), TNBC cells. The note with it: 1 mM, 72 hours, MTS method. The method, then:
as §1, §2

A further test relates to MDA-MB-231. Description: MTS cell number assay (CellTiter 96), TNBC cells. The note with it: Homo sapiens, 1 mM, 72 hours, MTS method, read-out: Biodata TNBC MDA-MB-231, cell numbers as percentage of vehicle treated controls. The method, then: as §1, §2
In a further test the test system is MCF7. In words: MTS cell number assay (CellTiter 96), ER+ breast cancer cells. The conditions noted are these: Homo sapiens, 1 mM, 72 hours, MTS method, read-out: ER+ BC MCF7, cell numbers as percentage of vehicle treated controls. On the procedure: FIG. 1. Metformin analogues inhibit growth/survival of ER+ MCF7 breast cancer cells. MCF7 cells were cultured in medium containing different concentrations of metformin and analogues (0.1, 1 and 5 mM). After 3 days, the percentage of surviving cells relative to controls, defined as 100% survival, was determined by the MTS assay. Data represents three independent experiments.
Compounds described herein (e.g. metformin derivatives and/or analogues) were tested in human MCF-7 breast cancer cells, a standard ERalpha-positive model of breast malignancy (FIG. 1), and in four different cell lines classified as TNBC, including MDA-MB-231, HCC1937, HCC38 and HCC1806 (FIGS. 2A-2D). […] Experiments were also performed in: 1) a non-small cell lung cancer cell line that is known to be resistant to standard chemotherapy (A549); and 2) a melanoma-like cell model (MDA-MB-435). To find if analogues have effects on normal cells compounds were tested in two different types of cells, human umbilical vein endothelial cells (HUVEC) and human mammary epithelial cells (HMEC). The effects of metformin (MET) were compared with compounds JD001-JD009.
as §2

A further test deals with HMEC. Description: MTS cell number assay (CellTiter 96), normal cells. The conditions noted are these: Homo sapiens, 1 mM, 72 hours, MTS method, read-out: Biodata Normal HMEC, cell numbers as percentage of vehicle treated controls. On the procedure: (§3) FIGS. 4A-4B. Effects of metformin and metformin analogues on normal cells. HMEC (FIG. 4A) and HUVEC (FIG. 4B) cells were plated in special media. After 24 hours, cells were treated with increasing concentrations of metformin and analogues JD001-JD009 (0.1, 1 and 5 mM). After 3 days, MTS assay was performed. Survival is expressed as percentage of vehicle treated control. Data represents at least two experiments.
(§4) The effects of compounds described herein (including embodiments) (e.g. metformin analogues) were determined on two types of normal nonmalignant human cells, human umbilical vein endothelial cells (HUVEC) and human mammary epithelial cells (HMEC). There were no significant biologic effects noted on exposure to the metformin analogues.
as §2

The test system of another test is HUVEC. Description: MTS cell number assay (CellTiter 96), normal cells. The conditions noted are these: Homo sapiens, 1 mM, 72 hours, MTS method, read-out: Biodata Normal HUVEC, cell numbers as percentage of vehicle treated controls. The method, then:
as §3, §4, §2

The test system of another test is A549. In words: MTS cell number assay (CellTiter 96), NSCLC cells. The conditions noted are these: Homo sapiens, 1 mM, 72 hours, MTS method, read-out: Biodata extra A549, cell numbers as percentage of vehicle treated controls. The method, then:
(§5) FIGS. 3A-3B. Metformin analogues inhibit survival of non-small cell lung cancer (NSCLC) (FIG. 3A) and melanoma cell lines (FIG. 3B). A549 (NSCLC) and MDA-MB-435 (melanoma) cells were cultured in medium containing 1% fetal bovine serum and increasing concentrations of metformin (MET) and analogues JD001-JD007 (0.1, 1 and 5 mM). After 3 days, MTS assay was performed. Survival is expressed as percentage of control defined at 100%.
as §2

The next test relates to MDA-MB-435. Description: MTS cell number assay (CellTiter 96), melanoma cells. The note with it: 1 mM, 72 hours, MTS method. On the procedure:
as §5, §2

Structures can show the parent of a compound that is named as a salt.

Regarding `N=C(NC(=N)N1CCCCC1)N1CCCCC1` [JD002, N-(Imino(piperidin-1-yl)methyl)piperidine-1-carboximidamide hydrochloride], in the test with HCC1806, the “Biodata TNBC HCC1806, cell numbers as percentage of vehicle treated controls” value is on record as 36.4 percentage of vehicle treated controls. The “Biodata TNBC HCC1937, cell numbers as percentage of vehicle treated controls” value in the test with HCC1937 is on record as 17.1 percentage of vehicle treated controls. Besides, the “Biodata TNBC HCC38, cell numbers as percentage of vehicle treated controls” value in the test with HCC38 was 44.7 percentage of vehicle treated controls. In addition, the viability at 1000 µM with MDA-MB-231 amounted to 48.5%; in the test with MCF7, 46.2%; in the test on HMEC, 62.6%; with HUVEC, 70%; in the test with A549, 4.6%. The “Biodata extra MDA-MB-435, cell numbers as percentage of vehicle treated controls” value with MDA-MB-435 was 39.8 percentage of vehicle treated controls.

Consider `CC1CCN(C(=N)NC(=N)N)CC1` [JD009, N-Carbamimidoyl-4-methylpiperidine-1-carboximidamide, hydrochloride], for which the “Biodata TNBC HCC1806, cell numbers as percentage of vehicle treated controls” value in the test on HCC1806 is 7.3 percentage of vehicle treated controls. For the same compound, the “Biodata TNBC HCC38, cell numbers as percentage of vehicle treated controls” value in the test with HCC38 is on record as 0 percentage of vehicle treated controls. In addition, the viability at 1000 µM is 0.3% in the test with MDA-MB-231, 52.7% with MCF7, 48.8% in the test on HMEC and 39.5% with HUVEC.

`CCCN(C)C(=N)NC(=N)N` [JD008, N-Methyl-N-propylbiguanide hydrochloride]: in the test with HCC1806, the “Biodata TNBC HCC1806, cell numbers as percentage of vehicle treated controls” value is on record as 52.7 percentage of vehicle treated controls. In addition, the “Biodata TNBC HCC38, cell numbers as percentage of vehicle treated controls” value in the test on HCC38 is reported as 55.6 percentage of vehicle treated controls. Besides, the viability at 1000 µM was 38.6% in the test on MDA-MB-231, 52.2% in the test on MCF7, 70.9% in the test on HMEC and 37.7% in the test on HUVEC.

`CON(C)C(=N)NC(=N)N` [JD001, N-Methoxyl-N-methylbiguanide hydrochloride]: in the test with HCC1806, the “Biodata TNBC HCC1806, cell numbers as percentage of vehicle treated controls” value was 80.1 percentage of vehicle treated controls. In the test on HCC1937, the “Biodata TNBC HCC1937, cell numbers as percentage of vehicle treated controls” value is given as 68.9 percentage of vehicle treated controls. The “Biodata TNBC HCC38, cell numbers as percentage of vehicle treated controls” value in the test on HCC38 was 102.5 percentage of vehicle treated controls. For the same compound, the viability at 1000 µM with MDA-MB-231 amounted to 92%; in the test on MCF7, 82.3%; with HMEC, 101%; in the test on HUVEC it was 84.4%; in the test on A549, 62.6%. For the same compound, in the test with MDA-MB-435, the “Biodata extra MDA-MB-435, cell numbers as percentage of vehicle treated controls” value was 102.1 percentage of vehicle treated controls.

On to `N=C(NC(=N)N1CCCC1)N1CCCCC1` [JD005, N-(Imino(pyrrolidin-1-yl)methyl)piperidine-1-carboximidamide hydrochloride], for which the “Biodata TNBC HCC1806, cell numbers as percentage of vehicle treated controls” value with HCC1806 is given as 55.8 percentage of vehicle treated controls. The “Biodata TNBC HCC1937, cell numbers as percentage of vehicle treated controls” value in the test with HCC1937 is 15.7 percentage of vehicle treated controls. In addition, the “Biodata TNBC HCC38, cell numbers as percentage of vehicle treated controls” value in the test with HCC38 is recorded as 43.4 percentage of vehicle treated controls. Moreover, the viability at 1000 µM in the test on MDA-MB-231 came to 46.6%; with MCF7 it was 58.2%; in the test on HMEC it was 67.6%; with HUVEC, 54.6%; in the test on A549 it was 32.4%. The “Biodata extra MDA-MB-435, cell numbers as percentage of vehicle treated controls” value with MDA-MB-435 is given as 42.2 percentage of vehicle treated controls.

As for `CN(C)C(=N)NC(=N)N1CCOCC1` [JD007, N—(N,N-Dimethylcarbamimidoyl)morpholine-4-carboximidamide hydrochloride], the “Biodata TNBC HCC1806, cell numbers as percentage of vehicle treated controls” value in the test with HCC1806 is listed as 65.7 percentage of vehicle treated controls. The “Biodata TNBC HCC38, cell numbers as percentage of vehicle treated controls” value in the test on HCC38 is listed as 83.6 percentage of vehicle treated controls. In addition, the viability at 1000 µM in the test on MDA-MB-231 worked out at 64.3%; in the test with MCF7 it was 65.8%; with HMEC, 105%; with HUVEC, 112%; with A549 it was 82.3%.

Turning to `N=C(NC(=N)N1CCCC1)N1CCCC1` [JD006, N-(Imino(pyrrolidin-1-yl)methyl)pyrrolidine-1-carboximidamide hydrochloride], the viability at 1000 µM turned out to be 59.7% with MCF7, 96.6% in the test on HMEC, 113% in the test on HUVEC and 59.7% with A549.
